From the supplement of paper PMC11451515

Columns and labels:
Conditions in all cases: 48 h
SEM cells [1] = test: cell viability relative to DMSO control; higher = less cytotoxic
Procedure, shortened: (§1)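 Before seeding, each leukemia line was adapted for at least four passages in each medium. NOMO1 or SEM cells (500 cells/well) and P12-Ichikawa cells (1000 cells/well) went into 1536-well plates at 5 μl, then received library compounds in DMSO by pin dosing across 11 threefold concentrations, 47 μM to 0.79 nM. Readout was CellTiter-Glo One luminescence after 48 h at 37°C, and viability is given as a per-plate percentage of DMSO wells, with cell-free wells as background.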

NOMO1 [2] = test: as above
Procedure, shortened: as §1

P12-Ichikawa [3] = test: as above
Procedure, shortened: as §1

SEM cells [4] = test: AUC of viability dose-response curve (% viability x log10 dose units); higher = less sensitive
Procedure, shortened: (§2)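 Leukemia cells adapted to each medium were seeded in 1536-well plates (500 or 1000 cells/well) and given library compounds in DMSO for 48 h at 37°C. The 11 threefold doses spanned 47 μM to 0.79 nM, and CellTiter-Glo One luminescence was normalised per plate to DMSO and cell-free wells before four-parameter log-logistic fitting on log10 dose. Area under the curve was integrated with the trapezoidal rule, scaling curves above full viability and removing curves that failed quality control.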

NOMO1 [5] = test: as above
Procedure, shortened: as §2

P12-Ichikawa [6] = test: as above
Procedure, shortened: as §2

N#C[C@@H]1C[C@@H]2C[C@@H]2N1C(=O)[C@@H](N)C12CC3CC(CC(O)(C3)C1)C2
cell viability [%]
Conditions | NOMO1 [2] | P12-Ichikawa [3] | SEM cells [1]
HPLM + 10% dialyzed FBS, 0.000781 µM | 139 | 121 | –
HPLM + 10% dialyzed FBS, 0.00234 µM | 118 | 123 | –
HPLM + 10% dialyzed FBS, 0.00702 µM | 124 | 115 | –
HPLM + 10% dialyzed FBS, 0.0211 µM | 134 | 122 | –
HPLM + 10% dialyzed FBS, 0.0632 µM | 129 | 122 | –
HPLM + 10% dialyzed FBS, 0.19 µM | 129 | 114 | –
HPLM + 10% dialyzed FBS, 0.569 µM | 127 | 122 | –
HPLM + 10% dialyzed FBS, 1.71 µM | 106 | 110 | –
HPLM + 10% dialyzed FBS, 5.12 µM | 96.6 | 109 | –
HPLM + 10% dialyzed FBS, 15.4 µM | 32.2 | 110 | –
HPLM + 10% dialyzed FBS, 46.1 µM | 5.88 | 108 | –
RPMI 5 mM glucose + 10% FBS, 0.000781 µM | 120 | 132 | 113
RPMI 5 mM glucose + 10% FBS, 0.00234 µM | 109 | 123 | 109
RPMI 5 mM glucose + 10% FBS, 0.00702 µM | 118 | 120 | 105
RPMI 5 mM glucose + 10% FBS, 0.0211 µM | 124 | 120 | 104
RPMI 5 mM glucose + 10% FBS, 0.0632 µM | 109 | 116 | 108
RPMI 5 mM glucose + 10% FBS, 0.19 µM | 116 | 123 | 96.6
RPMI 5 mM glucose + 10% FBS, 0.569 µM | 111 | 128 | 102
RPMI 5 mM glucose + 10% FBS, 1.71 µM | 110 | 107 | 87.5
RPMI 5 mM glucose + 10% FBS, 5.12 µM | 113 | 111 | 79
RPMI 5 mM glucose + 10% FBS, 15.4 µM | 112 | 110 | 82.2
RPMI 5 mM glucose + 10% FBS, 46.1 µM | 67.3 | 97.6 | 79.4
RPMI 5 mM glucose + 10% dialyzed FBS, 0.000781 µM | 122 | 122 | 118
RPMI 5 mM glucose + 10% dialyzed FBS, 0.00234 µM | 125 | 128 | 115
RPMI 5 mM glucose + 10% dialyzed FBS, 0.00702 µM | 106 | 121 | 110
RPMI 5 mM glucose + 10% dialyzed FBS, 0.0211 µM | 125 | 118 | 110
RPMI 5 mM glucose + 10% dialyzed FBS, 0.0632 µM | 131 | 124 | 111
RPMI 5 mM glucose + 10% dialyzed FBS, 0.19 µM | 123 | 114 | 110
RPMI 5 mM glucose + 10% dialyzed FBS, 0.569 µM | 132 | 121 | 115
RPMI 5 mM glucose + 10% dialyzed FBS, 1.71 µM | 122 | 123 | 108
RPMI 5 mM glucose + 10% dialyzed FBS, 5.12 µM | 118 | 112 | 108
RPMI 5 mM glucose + 10% dialyzed FBS, 15.4 µM | 97.9 | 111 | 117
RPMI 5 mM glucose + 10% dialyzed FBS, 46.1 µM | 44.6 | 108 | 94.5

AUC of viability dose-response curve
Conditions | NOMO1 [5] | P12-Ichikawa [6] | SEM cells [4]
HPLM + 10% dialyzed FBS | 400 | 462 | 465
RPMI 5 mM glucose + 10% FBS | 466 | 433 | 426
RPMI 5 mM glucose + 10% dialyzed FBS | 450 | 451 | 455

CC1(C)NC(=O)N(c2ccc([N+](=O)[O-])c(C(F)(F)F)c2)C1=O
cell viability [%]
Conditions | NOMO1 [2] | P12-Ichikawa [3] | SEM cells [1]
HPLM + 10% dialyzed FBS, 0.000781 µM | 93.3 | 96.1 | 88.7
HPLM + 10% dialyzed FBS, 0.00234 µM | 91.4 | 87.3 | 89.7
HPLM + 10% dialyzed FBS, 0.00702 µM | 90 | 90.1 | 82.5
HPLM + 10% dialyzed FBS, 0.0211 µM | 107 | 89.5 | 90.8
HPLM + 10% dialyzed FBS, 0.0632 µM | 96.2 | 101 | 96.9
HPLM + 10% dialyzed FBS, 0.19 µM | 96.9 | 90.9 | 44.9
HPLM + 10% dialyzed FBS, 0.569 µM | 82 | 89.6 | 94
HPLM + 10% dialyzed FBS, 1.71 µM | 92.8 | 87.8 | 90.8
HPLM + 10% dialyzed FBS, 5.12 µM | 90 | 77.1 | 81
HPLM + 10% dialyzed FBS, 15.4 µM | 90.1 | 85.2 | 87.4
HPLM + 10% dialyzed FBS, 46.1 µM | 82.3 | 80 | 84.6
RPMI 5 mM glucose + 10% FBS, 0.000781 µM | 92.9 | 88.4 | 98.7
RPMI 5 mM glucose + 10% FBS, 0.00234 µM | 95.5 | 82.8 | 79.5
RPMI 5 mM glucose + 10% FBS, 0.00702 µM | 90.9 | 82.5 | 92.9
RPMI 5 mM glucose + 10% FBS, 0.0211 µM | 94.6 | 95.2 | 96.7
RPMI 5 mM glucose + 10% FBS, 0.0632 µM | 92.8 | 96.2 | 104
RPMI 5 mM glucose + 10% FBS, 0.19 µM | 88.7 | 92 | 86
RPMI 5 mM glucose + 10% FBS, 0.569 µM | 90.1 | 90.1 | 99.6
RPMI 5 mM glucose + 10% FBS, 1.71 µM | 97.8 | 74.9 | 94.9
RPMI 5 mM glucose + 10% FBS, 5.12 µM | 86.3 | 82.8 | 110
RPMI 5 mM glucose + 10% FBS, 15.4 µM | 82.2 | 82.9 | 87.7
RPMI 5 mM glucose + 10% FBS, 46.1 µM | 76.4 | 75.8 | 93.9
RPMI 5 mM glucose + 10% dialyzed FBS, 0.000781 µM | 80.9 | 77.6 | 99.4
RPMI 5 mM glucose + 10% dialyzed FBS, 0.00234 µM | 87.7 | 81 | 91
RPMI 5 mM glucose + 10% dialyzed FBS, 0.00702 µM | 90.8 | 75.6 | 101
RPMI 5 mM glucose + 10% dialyzed FBS, 0.0211 µM | 86.6 | 80 | 109
RPMI 5 mM glucose + 10% dialyzed FBS, 0.0632 µM | 86.2 | 83.4 | 96.3
RPMI 5 mM glucose + 10% dialyzed FBS, 0.19 µM | 82.2 | 85.7 | 74.5
RPMI 5 mM glucose + 10% dialyzed FBS, 0.569 µM | 89.3 | 78.4 | 104
RPMI 5 mM glucose + 10% dialyzed FBS, 1.71 µM | 85.9 | 77.2 | 106
RPMI 5 mM glucose + 10% dialyzed FBS, 5.12 µM | 86.5 | 70.7 | 106
RPMI 5 mM glucose + 10% dialyzed FBS, 15.4 µM | 77.5 | 75 | 78.9
RPMI 5 mM glucose + 10% dialyzed FBS, 46.1 µM | 82.1 | 67.8 | 90

AUC of viability dose-response curve
Conditions | NOMO1 [5] | P12-Ichikawa [6] | SEM cells [4]
HPLM + 10% dialyzed FBS | 439 | 424 | 404
RPMI 5 mM glucose + 10% FBS | 431 | 410 | 454
RPMI 5 mM glucose + 10% dialyzed FBS | 407 | 371 | 461
